Consider 2 molecules from patent US9192602B2, “Indication of anthra[2,1,c][1,2,5]thiadiazole-6,11-dione compound in alleviating pain” (NATIONAL CENTRAL UNIVERSITY, priority 2014, dated 2015).

Data set [1] relates to CD-1 mice. The experiment in a line: Nociceptive pain: acute pain induced by acid solution, von Frey mechanical hyperalgesia test. Format: in vivo. How it is done: Anthra[2,1-c][1,2,5]thiadiazole-6,11-dione (NSC745885, B1) was intraplantarly injected into the right hind paws of 8 to 12-week-old CD-1 mice. 5 minutes after the injection, 25 μL of pH 5.0 acid solution was intraplantarly injected into each of the mice. About 60 minutes later, the mice were directly tested with the hypersensitivity to mechanical stimuli using von Frey filaments (Touch-Test North Coast Medical, Inc., Margan Hill, Calif.). The control group was conducted under the same conditions except it was treated with a compound-free saline. […]
(§1) 2.2 μg/kg of the compound was administered to the mice by intraplantar injection about 5 minutes prior to the injection of the acid solution. An hour after the injection of the acid, the hypersensitivity of the mice to mechanical stimuli was measured using von Frey filaments (Touch-Test North Coast Medical, Inc., Margan Hill, Calif.). […] 60 minutes after the mice were administered with the compound, the mechanical hyperalgesia was assessed through the measurement of paw withdrawal frequencies by a sequential series of von Frey filaments of weights 0.6, 1.0, 1.4, 2.0 and 4.0 g applied perpendicularly to the plantar surface of the paw. […] The occurrence of paw withdrawal resulting from the stimulation or removing the stimulation for each trial was quantified as a percentage response frequency for each monofilament. […]

For data set [2], the system named is CD-1 mice. The experiment in a line: Neuropathic pain: chronic constriction injury (CCI) of the sciatic nerve, von Frey mechanical hyperalgesia test. Format: in vivo. The source says: The assessment of the effectiveness of the compound for alleviating neuropathic pain used the animal model of chronic constriction injury (CCI) of the sciatic nerve, which was established by Bennett and Xie (1988). After the surgery, the mice developed long-lasting hypersensitivity to mechanical stimuli (chronic mechanical hyperalgesia) even being lightly touched. The mechanical hyperalgesia test was used to evaluate the analgesic effect of the compound.
The mice, after a week following the ligation surgery, were intraplantarly injected with a series of different dosages of the compound, 0.22, 2.2, 22 μg/kg or the mice were injected with 2.2 μg/kg of compound intrathecally, or with 44 μg/kg of the compound intraperitoneally. The hypersensitivity to mechanical stimuli was measured using von Frey filaments at 60 minutes after the injection. The mice injected with saline following surgery were the control group and the other mice injected with gabapentin following surgery were the positive control group.
2.2 μg/kg of the compound was administered to the mice by intraplantar injection about 5 minutes prior to the injection of the acid solution. An hour after the injection of the acid, the hypersensitivity of the mice to mechanical stimuli was measured using von Frey filaments (Touch-Test North Coast Medical, Inc., Margan Hill, Calif.). The mice were placed in transparent plastic chambers (10×8×10 cm) on a metal mesh floor at least 30 minutes per day for 2 days to acclimatize them to the testing room prior to the test. 60 minutes after the mice were administered with the compound, the mechanical hyperalgesia was assessed through the measurement of paw withdrawal frequencies by a sequential series of von Frey filaments of weights 0.6, 1.0, 1.4, 2.0 and 4.0 g applied perpendicularly to the plantar surface of the paw. The paw was briefly stimulated with force sufficient to slightly bend the filaments and a single trial consisted of repeated applications of the von Frey filaments five times, each application lasting for about 5 seconds. The occurrence of paw withdrawal resulting from the stimulation or removing the stimulation for each trial was quantified as a percentage response frequency for each monofilament. When the frequency was more than 50%, the weight of the von Frey filaments was determined as the paw withdrawal threshold (PWT). To make sure all the mice were under normal physical conditions, all housing conditions complied with general feeding standards, and the temperature and illumination were maintained in a suitable range.
According to the method described by Bennett and Xie, Pain, 1988, 33, 87-107, 8 to 12-week-old CD-1 mice were subjected to chronic constriction injury (CCI) of the sciatic nerve, which is an animal model inducing chronic neuropathic pain. To anesthetize the mice, each of the mice was injected with 240 mg/kg of 2,2,2-tribromoethanol (Avertin). Then three ligatures were loosely tied around the sciatic nerve of the mouse with chromic gut. The surgical procedure for the Sham (non ligation) control group was identical to that mentioned above except that the sciatic nerves were not ligated. A week after the mice in the experimental (CCI+compound) group had chronic constriction injury of sciatic nerves, the compound was intraplantarly, intrathecally, or intraperitoneally injected into the mice. 60 minutes after the injection, the mice were directly subjected to the hypersensitivity test to mechanical stimuli. The mice under the surgery treated with saline were the CCI group; the mice treated with gabapentin were the positive control (CCI+Gabapentin) group.

In another data set the test system is mice. The experiment in a line: Inflammatory pain: chronic inflammatory pain induced by Complete Freund's Adjuvant (CFA), von Frey test. To be noted: 60 min after CFA. Format: in vivo. How it is done:
When 50% CFA was intraplantarly injected into the mouse, paw edema and chronic mechanical hyperalgesia were developed in the tested mice. Different dosages of the anthra[2,1-c][1,2,5]thiadiazole-6,11-dione compound, 0.22, 2.2, 22 μg/kg were intraplantarly injected into mouse hindpaw, followed by 50% CFA injection. At 60 minutes after the CFA injection, the pain sensitivity of the mice was measured by mechanical stimulation using von Frey filaments.
as §1, with “monofilament. When the frequency was more than 50%, the weight of the von Frey filaments was determined as the paw withdrawal threshold (PWT).” for “monofilament.”

For the next data set, the system named is human cancer cell lines. Conditions: NCI panel (leukemia, non-small cell lung cancer, colon cancer, etc.); Taiwan Patent application 097112087; cited from earlier work.

Consider `O=C1c2ccccc2C(=O)c2c1ccc1nsnc21` [B1, Anthra[2,1-c][1,2,5]thiadiazole-6,11-dione], for which the “paw withdrawal threshold (PWT)” value in the data set with CD-1 mice [1] (2.2 μg/kg intraplantar, 5 min before 25 μL pH 5.0 acid solution, measured about 60 min later, acid only 1.1±0.065 g, control 4.0±0 g) was 3.3 ± 0.67 g; with CD-1 mice [1] (sole injection of the compound without the acid solution, did not induce pain) it was 4.0 ± 0 g; in the data set on CD-1 mice [2] (2.2 μg/kg intraplantar once every week for three weeks, first week), 2.5 ± 0.8 g; in the data set with CD-1 mice [2] (2.2 μg/kg intraplantar once every week for three weeks, second week), 2.0 ± 0 g; with CD-1 mice [2] (2.2 μg/kg intraplantar once every week for three weeks, third week) it was 2.7 ± 0.67 g; in the data set with CD-1 mice [2] (2.2 μg/kg intraplantar, one week after CCI surgery, 60 min after injection, CCI only 0.9±0.23 g, control 3.6±0.29 g) it was 2.5 ± 0.8 g. Also, the “paw withdrawal threshold (PWT)” value with CD-1 mice [2] (2.2 μg/kg intrathecal, one week after CCI surgery, 60 min after injection) worked out at 4.0 g; in the data set on CD-1 mice [2] (22 μg/kg intraplantar, one week after CCI surgery, 60 min after injection), 4.0 ± 0.0 g; with mice (2.2 μg/kg intraplantar 5 min before 50% CFA, CFA only 0.4±0.033 g, control 3.6±0.202 g), 1.6 ± 0.15 g; with mice (22 μg/kg intraplantar 5 min before 50% CFA), 3.0 ± 0.45 g. For the same molecule, the “development of tolerance to the compound” value in the data set on CD-1 mice [2] (2.2 μg/kg intraplantar once every week for three weeks) is recorded as “no obvious indication that the mice developed tolerance”. In addition, the “inhibition of mechanical hyperalgesia induced by CCI of the sciatic nerve” value in the data set on CD-1 mice [2] (44 μg/kg intraperitoneal) is listed as “completely inhibited mechanical hyperalgesia”. Besides, the “anti-proliferative activity against human cancer cell lines” value with human cancer cell lines was “shows anti-proliferative activity against human cancer cell lines”.
For the molecule `NCC1(CC(=O)O)CCCCC1` [gabapentin, reference compound], in the data set on CD-1 mice [2] (intraperitoneal injection), the “dosage required to inhibit chronic mechanical hyperalgesia caused by CCI” value was “at least 15,000 μg/kg”.
